What was measured:
VERPE = assay: Post-emergence herbicidal action against VERPE; assay type: in vivo, Veronica persica; conditions: application rate 80 g/ha
How it was run: (§1)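 Activity was scored by eye roughly 3 weeks post-treatment relative to untreated plants, on a scale where 0% equals control and 100% equals dead plants. Treatment: spray onto green parts at one-leaf stage (2–3 weeks from sowing, sandy loam, greenhouse), WP/EC formulations with 0.5% additive, 600 l/ha water.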

HORMU [1] = assay: Post-emergence herbicidal action against HORMU; assay type: in vivo, Hordeum murinum; conditions: application rate 80 g/ha
How it was run: as §1

MATIN = assay: Post-emergence herbicidal action against MATIN; assay type: in vivo, Matricaria inodora; conditions: application rate 80 g/ha, rated visually about 3 weeks after treatment
How it was run: as §1

ECHCG = assay: Post-emergence herbicidal action against ECHCG; assay type: in vivo, Echinochloa crus-galli; conditions: application rate 80 g/ha, rated visually after about 3 weeks
How it was run: as §1

SETVI [2] = assay: Post-emergence herbicidal action against SETVI; assay type: in vivo, Setaria viridis; conditions: application rate 80 g/ha, rated visually after about 3 weeks
How it was run: as §1

LOLRI [3] = assay: Post-emergence herbicidal action against LOLRI; assay type: in vivo, Lolium rigidum; conditions: application rate 80 g/ha, rated visually after about 3 weeks
How it was run: as §1

ABUTH = assay: Post-emergence herbicidal action against ABUTH; assay type: in vivo, Abutilon theophrasti; conditions: application rate 80 g/ha, rated visually about 3 weeks after treatment
How it was run: as §1

PHBPU = assay: Post-emergence herbicidal action against PHBPU; assay type: in vivo, Pharbitis purpurea; conditions: application rate 80 g/ha, rated visually about 3 weeks after treatment
How it was run: as §1

VIOTR [4] = assay: Post-emergence herbicidal action against VIOTR; assay type: in vivo, Viola tricolor; conditions: application rate 80 g/ha, rated visually about 3 weeks after treatment
How it was run: as §1

AVEFA [5] = assay: Post-emergence herbicidal action against AVEFA; assay type: in vivo, Avena fatua; conditions: application rate 80 g/ha, rated visually after about 3 weeks
How it was run: as §1

POLCO [6] = assay: Post-emergence herbicidal action against POLCO; assay type: in vivo, Polygonum convolvulus; conditions: application rate 80 g/ha, rated visually about 3 weeks after treatment
How it was run: as §1

ALOMY [7] = assay: Post-emergence herbicidal action against ALOMY; assay type: in vivo, Alopecurus myosuroides; conditions: application rate 80 g/ha, rated visually after about 3 weeks
How it was run: as §1

STEME [8] = assay: Post-emergence herbicidal action against STEME; assay type: in vivo, Stellaria media; conditions: application rate 80 g/ha, rated visually about 3 weeks after treatment
How it was run: as §1

AMARE [9] = assay: Post-emergence herbicidal action against AMARE; assay type: in vivo, Amaranthus retroflexus; conditions: application rate 80 g/ha, rated visually about 3 weeks after treatment
How it was run: as §1

STEME [10] = assay: Pre-emergence herbicidal action against STEME; assay type: in vivo, Stellaria media; conditions: application rate 80 g/ha
Description: (§2) 1. Pre-emergence herbicidal action against harmful plants and crop plant compatibility Seeds of monocotyledonous and dicotyledonous weed plants and crop plants are placed in plastic or wood-fibre pots and covered with soil. The compounds of the invention, formulated in the form of wettable powders (WP) or as emulsion concentrates (EC), are then applied onto the surface of the covering soil as aqueous suspension or emulsion with addition of 0.5% additive at a water application rate of 600 l/ha (converted). After the treatment, the pots are placed in a greenhouse and kept under good growth conditions for the trial plants. After about 3 weeks, the effect of the preparations is scored visually in comparison with untreated controls as percentages. For example, 100% activity=the plants have died, 0% activity=like control plants. [table]

HORMU [11] = assay: Pre-emergence herbicidal action against HORMU; assay type: in vivo, Hordeum murinum; conditions: application rate 80 g/ha
Description: as §2

ALOMY [12] = assay: Pre-emergence herbicidal action against ALOMY; assay type: in vivo, Alopecurus myosuroides; conditions: application rate 80 g/ha, scored visually after about 3 weeks vs untreated controls (100% = plants have died, 0% = like control plants)
Description: as §2

AMARE [13] = assay: Pre-emergence herbicidal action against AMARE; assay type: in vivo, Amaranthus retroflexus; conditions: application rate 80 g/ha
Description: as §2

SETVI [14] = assay: Pre-emergence herbicidal action against SETVI; assay type: in vivo, Setaria viridis; conditions: application rate 80 g/ha, scored visually after about 3 weeks vs untreated controls (100% = plants have died, 0% = like control plants)
Description: as §2

POLCO [15] = assay: Pre-emergence herbicidal action against POLCO; assay type: in vivo, Polygonum convolvulus; conditions: application rate 80 g/ha
Description: as §2

LOLRI [16] = assay: Pre-emergence herbicidal action against LOLRI; assay type: in vivo, Lolium rigidum; conditions: application rate 80 g/ha, scored visually after about 3 weeks vs untreated controls (100% = plants have died, 0% = like control plants)
Description: as §2

AVEFA [17] = assay: Pre-emergence herbicidal action against AVEFA; assay type: in vivo, Avena fatua; conditions: application rate 80 g/ha, scored visually after about 3 weeks vs untreated controls (100% = plants have died, 0% = like control plants)
Description: as §2

VIOTR [18] = assay: Pre-emergence herbicidal action against VIOTR; assay type: in vivo, Viola tricolor; conditions: application rate 80 g/ha
Description: as §2

Compound	Herbicidal action against [%] VERPE (VERPE) [%]	Herbicidal action against [%] HORMU (HORMU [1]) [%]	Herbicidal action against [%] MATIN (MATIN) [%]	Herbicidal action against [%] ECHCG (ECHCG) [%]	Herbicidal action against [%] SETVI (SETVI [2]) [%]	Herbicidal action against [%] LOLRI (LOLRI [3]) [%]	Herbicidal action against [%] ABUTH (ABUTH) [%]	Herbicidal action against [%] PHBPU (PHBPU) [%]	Herbicidal action against [%] VIOTR (VIOTR [4]) [%]	Herbicidal action against [%] AVEFA (AVEFA [5]) [%]	Herbicidal action against [%] POLCO (POLCO [6]) [%]	Herbicidal action against [%] ALOMY (ALOMY [7]) [%]	Herbicidal action against [%] STEME (STEME [8]) [%]	Herbicidal action against [%] AMARE (AMARE [9]) [%]	further results
O=C(OCC(F)(F)F)C1C=CC(NC(=O)C2(C(F)(F)F)CC(c3cc(F)cc(F)c3)=NO2)C1 (mixture of isomers) [Example I-068]	80	90	90	90	90	90	90	80	90	100	90	90	90	80	
COC(=O)C(NC(=O)C1C=CC(NC(=O)C2(C)CC(c3cc(F)cc(F)c3)=NO2)C1)C(C)C (mixture of isomers) [II-11]	90	90	90	90	90	90	90	90	90	90	90	90	90	90	
CC1(C(=O)NC2C=CC(C(=O)NS(C)(=O)=O)C2)CC(c2cccc(F)c2)=NO1 (mixture of isomers) [II-13]															Herbicidal action against [%] STEME (STEME [10]): 100%
CN(C)C(=O)C1=CCC(NC(=O)C2(C)CC(c3cccc(F)c3)=NO2)C1 (mixture of isomers) [IV-01]															Herbicidal action against [%] HORMU (HORMU [11]): 90%; Herbicidal action against [%] ALOMY (ALOMY [12]): 90%; Herbicidal action against [%] AMARE (AMARE [13]): 90%; Herbicidal action against [%] STEME (STEME [10]): 90%; Herbicidal action against [%] SETVI (SETVI [14]): 90%; Herbicidal action against [%] POLCO (POLCO [15]): 90%; Herbicidal action against [%] LOLRI (LOLRI [16]): 100%; Herbicidal action against [%] AVEFA (AVEFA [17]): 90%
CONC(=O)C1=CC[C@@H](NC(=O)C2(C)CC(c3cccc(F)c3)=NO2)C1 (mixture of isomers) [IV-03, (5SR)-3-(3-Fluorophenyl)-N-[(1R)-3-[(methoxyamino)carbonyl]cyclopent-3-en-1-yl]-5-methyl-4H-1,2-oxazole-5-carboxamide]						90									Herbicidal action against [%] ALOMY (ALOMY [12]): 90%
CN(C)NC(=O)C1=CCC(NC(=O)C2(C)CC(c3cccc(F)c3)=NO2)C1 (mixture of isomers) [IV-05]															Herbicidal action against [%] ALOMY (ALOMY [12]): 80%; Herbicidal action against [%] VIOTR (VIOTR [18]): 100%; Herbicidal action against [%] STEME (STEME [10]): 90%; Herbicidal action against [%] AVEFA (AVEFA [17]): 80%
COC(=O)[C@@H]1C=C[C@H](NC(=O)C2(C(F)(F)F)CC(c3cc(F)cc(C#N)c3)=NO2)C1 (single isomer, unassigned) [Example I-098]	80	90	80	90	80	90	80	80	80	100	80	100	90	80	
CCOC(=O)[C@H]1C=C[C@@H](NC(=O)C2(C)CC(c3cccc(F)c3)=NO2)C1 (stereo partly shown) [Example I-005]															Herbicidal action against [%] AMARE (AMARE [13]): 80%
COC(=O)[C@H]1C=C[C@H](NC(=O)[C@@]2(C(F)(F)F)CC(c3cc(F)cc(F)c3)=NO2)C1 [Example I-062]	90	100	80	90	80	90	80	80	80	100	80	100	80	80	
COCCOC(=O)[C@@H]1C=C[C@H](NC(=O)[C@@]2(C(F)(F)F)CC(c3cc(F)cc(F)c3)=NO2)C1 [Example I-076]	80	80	80	90	90	100	80	80	80	100	90	100	90	90	
COCCOC(=O)[C@@H]1C=C[C@H](NC(=O)[C@@]2(C)CC(c3cc(F)cc(F)c3)=NO2)C1 [Example I-092]	90	100	90	80	80	90	90	80	80	90	80	90	90	90	
CCOCCOC(=O)[C@@H]1C=C[C@H](NC(=O)[C@@]2(C)CC(c3cc(F)cc(F)c3)=NO2)C1 [Example I-093]	80	100	90	100	80	100	80	80	80	100	90	100	80	80	
O=C(O)C1C=CC(NC(=O)C2(C3CC3)CC(c3cc(F)cc(F)c3)=NO2)C1 (stereo not shown) [Example I-094]	90	90	80	90	80	90	90	90	90	90	90	100	90	90	
CCONC(=O)[C@H]1C=C[C@@H](NC(=O)C2(C)CC(c3cccc(F)c3)=NO2)C1 (stereo partly shown) [II-03]															Herbicidal action against [%] VIOTR (VIOTR [18]): 90%
CC(C)ONC(=O)[C@H]1C=C[C@@H](NC(=O)C2(C)CC(c3cccc(F)c3)=NO2)C1 (stereo partly shown) [II-05]															Herbicidal action against [%] STEME (STEME [10]): 90%
CCOC(=O)C1=CC[C@@H](NC(=O)C2(C)CC(c3cccc(F)c3)=NO2)C1 (stereo partly shown) [III-05]		90				80									Herbicidal action against [%] HORMU (HORMU [11]): 80%
